Data on one compound can be found in patent US9243019B2 (priority 2013, dated 2016).

This data set is classed as physicochemical.
Where [1] appears, read: Table 3, accelerated for 0 month, hydroxysafflor yellow A per CN102675379A purity 89.9%, sodium salt purity 98.6%.
Where [2] appears, read: Table 3, accelerated for 1 month, hydroxysafflor yellow A per CN102675379A purity 89.9%, sodium salt purity 98.6%.
Where [3] appears, read: Table 3, accelerated for 2 months, hydroxysafflor yellow A per CN102675379A purity 89.9%, sodium salt purity 98.6%.
Where [4] appears, read: Table 3, accelerated for 3 months, hydroxysafflor yellow A per CN102675379A purity 89.9%, sodium salt purity 98.6%.
The mark [5] stands for this setting: Table 4, accelerated for 0 month, hydroxysafflor yellow A by acidizing purity 99.2%, sodium salt purity 99.2%.
The mark [6] stands for this setting: Table 4, accelerated for 2 months, hydroxysafflor yellow A by acidizing purity 99.2%, sodium salt purity 99.2%.
Setting [7] is: Table 4, accelerated for 3 months, hydroxysafflor yellow A by acidizing purity 99.2%, sodium salt purity 99.2%.

Like-named read-outs stand apart in the source and are kept apart here.

Regarding `O=C(/C=C/c1ccc(O)cc1)C1=C(O)C(O)(C2OC(CO)C(O)C(O)C2O)C(O)=C(C2OC(CO)C(O)C(O)C2O)C1=O` (stereo not drawn) [Hydroxysafflor yellow A, hydroxysafflor yellow A], the “Content (counting Hydroxyl A)” value under setting [1] came to 89.8%; the “Content (counting Hydroxyl A)” value under setting [2] was 84.7%; the “Content (counting Hydroxyl A)” value under setting [3] amounted to 79.2%; the “Content (counting Hydroxyl A)” value under setting [4] is listed as 71.2%; the “Content (counting Hydroxyl A)” value under setting [5] is 99.1%; the “Content (counting Hydroxyl A)” value under setting [6] turned out to be 89.2%. The “Content (counting Hydroxyl A)” value under setting [7] stood at 81.3%. The Total impurity is, setting by setting: under setting [1], 10.1%; under setting [2], 14.9%; under setting [3], 20.8%; under setting [4], 28.6%; under setting [5], 0.8%; (Table 4, accelerated for 1 month, hydroxysafflor yellow A by acidizing purity 99.2%, sodium salt purity 99.2%) 5.9%. Also, the Total impurity under setting [6] came out at 10.7% and the Total impurity under setting [7] is given as 18.6%.
